Test results: patent US8158596B2, “Materials and methods for FOXP3 tumor suppression” (The Regents of the University of Michigan, priority 2007, dated 2012)

Key:
p38 = target: T1, p38 (Mus musculus, UniProt P47811); assay type: cell-based; conditions: 4T1 cells; anisomycin 1 μg/ml, PMA 0.5 μg/ml
T1 construct: Western blots of the cell lysates were obtained using antibodies specific for phospho-ATF2, phospho-p38; endogenous in cells; host or cells: 4T1 mouse mammary tumor cells
Experimental: (§1) 4T1 cells were treated with either vehicle control, anisomycin (1 μg/ml) or PMA (0.5 μg/ml). Western blots of the cell lysates were obtained using antibodies specific for phospho-ATF2, phospho-p38, ATF2, phospho-JNK1/2, phospho-c-Jun. Levels of beta-actin were used as loading controls.
Cells of a mammary tumor cell line were treated with anisomycin in conjunction with inhibitors of overlapping specificity. […] Western blots of the cell lysates were obtained using antibodies specific for phosphor-ATF2, phospho-p38, ATF2, phospho-JNK1/2, phospho-c-Jun. Levels of beta-actin were used as loading controls.

JNK = experiment: Western blot of phospho-JNK1/2 in 4T1 cells; assay type: cell-based, mouse; conditions: for activation of JNK: anisomycin 1 μg/ml, PMA 0.5 μg/ml
Experimental: as §1, with “To identify the mechanism by which anisomycin induced FoxP3, the activation of ATF2, p38, and JNK upon treatment with either anisomycin or PMA was compared. 4T1” for “4T1”
(§2) Cells of a mammary tumor cell line were treated with anisomycin in conjunction with inhibitors of overlapping specificity. Specifically, 4T1 cells were treated with vehicle control, anisomycin (1 μg/ml) or PMA (0.5 μg/ml) in the presence or absence of inhibitors (2 μg/ml): SP10096 (SP), SB203580 (SB), and PD9786 (PD). Western blots of the cell lysates were obtained using antibodies specific for phosphor-ATF2, phospho-p38, ATF2, phospho-JNK1/2, phospho-c-Jun. Levels of beta-actin were used as loading controls.

c-Jun = experiment: Western blot of phospho-c-Jun in 4T1 cells; assay type: cell-based, mouse; conditions: for activation of c-Jun: anisomycin 1 μg/ml, PMA 0.5 μg/ml
Experimental: as §1, with “To identify the mechanism by which anisomycin induced FoxP3, the activation of ATF2, p38, and JNK upon treatment with either anisomycin or PMA was compared. 4T1” for “4T1”
as §2
(§3) In order to study the mechanism of ATF2/c-Jun-mediated induction of FoxP3, chromatin immunoprecipitation (ChIP) was carried out as described in (Im et al., Nat Med 5: 412-417 (1999)) to identify an anisomycin-inducible binding site of the FoxP3 locus. Briefly, 4TI cells were treated with vehicle or anisomycin for 2 hours. The cells were sonicated and the chromatin was fixed with 1% paraformaldehyde. Anti-phospho-c-Jun or anti-phosphor-ATF2 antibodies or control rabbit IgG were used to precipitate chromatin associated with these proteins. The amounts of the specific DNA fragments were quantitated by real-time PCR and normalized against the genomic DNA preparation from the same cells. […] Untreated 4T1 cells barely had detectable amounts of phospho-ATF2 and phospho-c-Jun in the nuclei.

ATF2 = experiment: Western blot of phospho-ATF2 in 4T1 cells; assay type: cell-based, mouse; conditions: for activation of ATF2: anisomycin 1 μg/ml, PMA 0.5 μg/ml
Experimental: as §1, with “To identify the mechanism by which anisomycin induced FoxP3, the activation of ATF2, p38, and JNK upon treatment with either anisomycin or PMA was compared. 4T1” for “4T1”
as §2, §3

FOXP3-encoding mRNA = experiment: Induction of FOXP3-encoding mRNA in cancer cell lines (RT-PCR); assay type: cell-based; conditions: thymoma BW5147, thymic epithelial cell 61.7, breast cancer TSA, treated 14 hr to 2 days
Experimental: A method was developed to induce FOXP3 expression in cancer cells by activating JNK, P38 and ATF2. Briefly, breast cancer and thymoma cell lines were treated with activators of JNK, P38 and ATF2, such a emetine and anisomycin for 14 hr to 2 days. The cells were analyzed for expression of FOXP3-encoding mRNA by RT-PCR.

MYC = experiment: FOXP3 silencing in HPEC: MYC transcript; assay type: cell-based, human; conditions: one week after infection
Experimental: (§4) To determine whether the endogenous FOXP3 in prostate epithelial cell lines is responsible for MYC repression, the FOXP3 locus was silenced with a lentiviral vector encoding shRNA for FOXP3. Human Prostate Epithelial Cells (HPEC) were purchased from Lonza Group Ltd (Switzerland) and were cultured with medium. An early passage of the HPEC were infected with lentivirus expressing either control shRNA or FOXP3 shRNA vector as described in Zuo et al., 2007, supra. Uninfected cells were removed by drug selection. At one week after infection, the levels of FOXP3 or MYC mRNA were quantitated by RT-PCR. Western blotting was also carried out using anti-FOXP3 or -MYC antibodies. Beta actin was used as a loading control.

FOXP3 [1] = experiment: FOXP3 silencing in HPEC: FOXP3 mRNA; assay type: cell-based, human; conditions: one week after infection
Experimental: as §4

TSA tumor cells = experiment: TSA tumor in mammary fat pads of BALb/c mice; assay type: in vivo; conditions: intraperitoneal, every 3 days for 8 times, I mg/mouse
Experimental: To test whether induction of FoxP3 by ATF2-FoxP3 pathway can be explored for breast cancer therapy, cells (5×10^5) of the TSA cell line were injected into the mammary fat pads of BALb/c mice. Five days later, when the cancer cells established locally, the mice were intraperitoneally treated with vehicle control or anisomycin every 3 days for 8 times at a dose of I mg/mouse.

[2] = system: P10 probe (AP1 site of FoxP3 enhancer); experiment: Electrophoretic mobility shift of P10 AP1 probe with 4T1 nuclear extracts; assay type: cell-based, mouse; conditions: nuclear extracts of anisomycin-treated 4T1 cells
Source text: Sequencing comparison identified a typical AP1 site within the P10. […] The sequence of nonmutated probe (P10) is […] (bold letters for core AP1 sequence; SEQ ID NO: 173), that for P10-Mt1 is […] (bold letter indicate mutations; SEQ ID NO: 174), while that for P10-Mt2 is […] (SEQ ID NO: 175).

TSA cells = experiment: Apoptosis: activated caspase 3 staining and DNA content; assay type: cell-based, mouse
Source text: Cells were stained for activated Capsase 3 and also tested for DNA contents. The % of gated cells was apoptotic based on their sub-2C DNA contents.

FOXP3 transcripts = FOXP3 transcripts in primary mammary epithelial cultures of ATF2+/+ and ATF2-/- mice; assay type: cell-based, mouse
Experimental: ATF2± mice were obtained from the frozen embryo bank of the Jackson Laboratories and were crossed to produce ATF2+/+ and the ATF2−/− mice. […] Two independent primary cultures were obtained from two ATF2−/− females. Specifically, mouse mammary fat pads were removed from 6 to 8-week-old virgin female mice and minced into small pieces. After collagenase digestion at 37° C. in a shaking incubator in DMEM medium supplemented with 5% fetal calf serum (FBS), cells were sieved through a 70-μm cell strainer (BD Falcon) to obtain a single cell suspension. The cells were cultured in DMEM medium supplemented with 10% FBS and 10 ng/ml epithelial growth factor (EGF). At day 3 of culture, fibroblast cells were removed by a short digestion with 0.05% trypsin-EDTA as less adherent cells.
The primary cultures were then assayed for expressioin of FOXP3 protein by Western blotting cell lysates of the cultures with antibodies specific for FOXP3. The primary transcripts also were assayed for expression of FOXP3 by real-time PCR.

[3] = system: FoxP3 locus P2 and P10 sites; experiment: ChIP of phospho-ATF2/phospho-c-Jun binding at the FoxP3 locus in 4T1 cells; assay type: cell-based, mouse
Experimental: as §3
In order to identify the FoxP3 sequence associated with p-ATF2 and p-c-Jun, the 5′ sequence of the FoxP3 gene was analyzed and 14 potential AP1 and CREB sites were identified. […]

[4] = system: breast cancer cell lines MCF-7, BT474, TSA; experiment: Killing of breast cancer cell lines / MTT viability assay; assay type: cell-based, human, mouse
Experimental: Given the impact of FOXP3 activity on tumor growth and cell death, these compounds were also tested for their ability to kill cancer cells. […] The IC50 ranges between 30-100 ng/ml.
To determine whether anisomycin treatment causes apoptosis of breast cancer cells, the cytotoxic effect of anisomycin on several of breast cancer cell lines was measured by MTT assay. 10^4 cells/well of mouse cell line (TSA) or human breast cancer cell lines (TB474 or MCF7) were cultured in the presence of 25, 50, 100, 200, 400, or 800 ng/ml anisomycin for 48 hours. The amounts of viable cells were determined by MTT assay, with viability of the untreated cells defined as 100%. Both mouse (TSA) and human breast cancer cell lines (BT474, MCF-7) were highly susceptible to anisomycin, with an IC50 between 50-100 […].

FOXP3 gene = FOXP3 gene induction in prostate cancer cell lines by methyltransferase inhibitor; assay type: cell-based, human; conditions: prostate cancer cell lines PC3 and Du145
Experimental: Using a quantitative pyrosequencing method for FOXP3 analysis, the level of methylation in both the intronic CpG motif and the CpG island was quantitated in the promoter region of FOXP3, using DNA from 17 cases of micro-dissected normal and cancerous tissues. […] Morover, the increase in methylation strongly correlate with reduction of FOXP3 expression. To verify the significance of DNA methylation, prostate cancer cell lines PC3 and Du145 were treated with a methyltransferase inhibitor (5-aza-2′-deoxycytidine (5-AZA)).

FoxP3 [5] = experiment: Anisomycin-induced FoxP3 induction in 4T1 cells with kinase inhibitors; assay type: cell-based, mouse; conditions: inhibitor 2 μg/ml with anisomycin 1 μg/ml
[6] = inhibitor 2 μg/ml with anisomycin 1 μg/ml

T1 sequence (P47811 whole entry): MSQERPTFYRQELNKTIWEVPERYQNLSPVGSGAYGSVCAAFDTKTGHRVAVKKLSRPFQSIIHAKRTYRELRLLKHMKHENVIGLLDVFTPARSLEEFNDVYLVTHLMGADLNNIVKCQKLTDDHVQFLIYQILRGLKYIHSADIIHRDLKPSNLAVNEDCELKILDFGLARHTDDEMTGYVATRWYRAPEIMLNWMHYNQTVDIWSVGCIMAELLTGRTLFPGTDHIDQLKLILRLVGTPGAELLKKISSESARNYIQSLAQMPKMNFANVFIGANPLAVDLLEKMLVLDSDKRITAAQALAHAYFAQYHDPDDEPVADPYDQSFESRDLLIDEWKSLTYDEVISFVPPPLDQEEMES

## CCCCCCCCCCCCCC(=O)O[C@@H]1[C@@H](C)[C@@]2(O)[C@@H](C=C(CO)C[C@]3(O)C(=O)C(C)=C[C@@H]23)[C@@H]2C(C)(C)[C@]12OC(C)=O [PMA]
p38
  activation of p38: activated
JNK
  activation of JNK: failed to activate
c-Jun
  activation of c-Jun: failed to activate
ATF2
  activation of ATF2: activated

## CC[C@H]1CN2CCc3cc(OC)c(OC)cc3[C@@H]2C[C@@H]1C[C@H]1NCCc2cc(OC)c(OC)cc21 [emetine]
FOXP3-encoding mRNA
  induction of FOXP3-encoding mRNA: strong induction

## FoxP3 shRNA: lentiviral shRNA specific for FoxP3 used in mouse TSA cells (SEQ ID NO: 168) (AAGCCATGGCAATAGTTCCTT)
MYC
  level of MYC transcript: significantly elevated
FOXP3 [1]
  expression of FOXP3 mRNA: major reduction

## COc1ccc(C[C@H]2NC[C@H](O)[C@H]2OC(C)=O)cc1 [anisomycin]
TSA tumor cells
  side effects: did not give obvious side effects
TSA tumor cells; from day 5
  growth of TSA tumor cells in syngeneic mammary pad: nearly completely abrogated
p38
  activation of p38: activated
[2]
  binding of nuclear extracts to nonmutated P10 probe (EMSA): strong interaction
TSA cells
  active caspase 3 in cells with less than 2C DNA contents: increased expression of active caspase 3
FOXP3 transcripts; ATF2+/+ primary mammary epithelial cells
  FOXP3 transcripts in ATF2+/+ epithelial cultures: further induced
FOXP3 transcripts; ATF2-/- primary mammary epithelial cells
  FoxP3 transcripts in ATF2-/- cells: completely refractory
JNK
  activation of JNK: activation
[3]; P2, 4.8 kb 5′ of exon 1
  inducibility of ATF2/cJun association with P2 site (ChIP): not inducible
[3]; P10, 4.2 kb 3′ of exon 1
  enhancement of ATF2/cJun binding to P10 site (ChIP): more than 2 fold
FOXP3-encoding mRNA
  induction of FOXP3-encoding mRNA: strong induction
c-Jun
  activation of c-Jun: activation
c-Jun; anisomycin 2 hours
  phospho-c-Jun in the nuclear fraction: major increase
ATF2
  activation of ATF2: activated
ATF2; anisomycin 2 hours
  phospho-ATF2 in the nuclear fraction: major increase
[4]; 48 hours
  IC50 (cancer cell killing): 0.03 to 0.1 µg/mL
[4]; within 48 hours
  killing of cancer cells: killed a substantial percentage of cancer cells

## Nc1ncn([C@H]2C[C@H](O)[C@@H](CO)O2)c(=O)n1 [5-AZA, 5-aza-2′-deoxycytidine]
FOXP3 gene
  induction of the FOXP3 gene: two-fold

## C[S+]([O-])c1ccc(-c2nc(-c3ccncc3)c(-c3ccc(F)cc3)[nH]2)cc1 (stereo not shown) [SB]
FoxP3 [5]
  inhibition of anisomycin-induced FoxP3 induction: reduced, but did not eliminate
JNK; [6]
  inhibition of JNK activation by anisomycin: only partially
ATF2; [6]
  inhibition of ATF2 activation by anisomycin: only partially
